Experimental data reported in patent publication US20240016924A1, “NEW ADJUVANT TO IMPROVE THE INNATE IMMUNITY” (INSTITUT NATIONAL DE LA SANTÉ ET DE LA RECHERCHE MÉDICALE, priority 2020, published 2024).

Experiments:
primary HNECs = assay: Signaling inhibitors on P1-induced TSLP expression; type: cell-based, human
Protocol: The expression of short and long form TSLP was quantified as described (Bjerkan, Schreurs et al. 2015, Dong, Hu et al. 2016). Briefly, total RNA was extracted using Trizol. Five hundred nanograms of RNA were treated with ezDNase Enzyme (Thermo Fisher) to remove genomic DNA, and reverse transcribed into cDNA using the kit SuperScript IV VILO Master Mix according to manufacturer instructions (Thermo Fisher). Quantitative PCR was performed using reported primers (Dong, Hu et al. 2016) and the PowerUp SYBR Green Master Mix according to manufacturer instructions (Thermo Fisher). Reactions were performed in triplicates, with glyceraldehyde-3-phosphate dehydrogenase (GAPDH) as the internal control. Amplification, data acquisition, and analysis were carried out using the LightCycler 480 Software (Roche, Mannheim, Germany). The levels of TSLP mRNA were normalized to the levels of GAPDH using the ΔCt method (Schmittgen and Livak 2008) and were presented as 2-ΔCt values.
Signaling inhibitors Confluent HNEC cells in 24-well plate were pre-incubated with inhibitors for 1 h at 37° C. prior to P1 treatment. Inhibitors, namely dexamethasone (Dex) a NF-kB and MAPK inhibitor (used at 100 nM), and Cyclosporin A (CsA) a Calcineurin Inhibitor (used at 1.5 μM), were from Invivogen and used at the manufacturer's recommended concentrations. […]

RPMI 2650 cells = assay: TSLP secretion in nasal RPMI 2650 cell culture supernatants (ELISA); type: cell-based, human
Protocol: Nasal RPMI 2650 cells (isolated from the human nasal septum, squamous cell carcinoma, ATCC) were grown in MEMα (Minimum Essential Medium α, Thermo Fisher) supplemented with 10% fetal calf serum (FCS, Eurobio, Courtaboeuf, France) and 1% penicillin/streptomycin.
(§1) TSLP, IL-25/IL-17E, IL-33, IFN-γ, IL-10, IL-12/23p40, IL-4, IL-5, IL-6, IL-13, TNF-α, MMP-9, IL-8/CXCL8, […], MDC/CCL22, TARC/CCL17, APRIL and BAFF were measured in culture supernatants from indicated experiments with custom multiplex Luminex assays (Bio-techne) according to the manufacturer's instructions. Additionally, when indicated TSLP was measured in culture supernatants by enzyme-linked immunosorbent assay (ELISA) with a limit of detection of 8 pg/ml (Thermo Fisher) according to the manufacturer's instructions.
We first investigate whether P1 induced TSLP secretion in nasal epithelium. Therefore, we cultured human nasal epithelial cells (RPMI 2650) with P1 Glade B for 2-24 hours at 37° C. and analyzed the culture supernatants for TSLP secretion.

nasal RPMI cells [1] = assay: Calcium measurement (Fura-2/AM), nasal RPMI cells; type: cell-based, human; settings: P1 125 μM vs 2511M, controls at 125 μM, n=3
Protocol: (§2) 70-80% confluent RPMI 2650 or HNEC cells in 24-well plate were loaded with […] Fura-2/AM (Molecular Probes) in basal medium without serum/growth factors for 1 hour at 37° C. Cells were washed twice with mammalian saline (Conche, Boulla et al. 2009) and measurements were performed in complete medium supplied with HEPS (10 mM) and CaCl2 (2 mM) as described add (Conche, Boulla et al. 2009). Images were acquired with an inverted fluorescence microscope (Observer Z1, Zeiss, Germany) and analyzed with MetaMorph software (Guichard, Bonilla et al. 2017) Calcium was measured every 5 seconds by video fluorescence imaging. Results were expressed as 340 nm to 380 nm fluorescence ratio and normalized to the baseline, i.e. ratio at time zero was set as 1.

primary HNEC cells = assay: Calcium measurement (Fura-2/AM), primary HNEC cells; type: cell-based, human; settings: P1 125 μM vs 2511M, controls at 125 μM, n=3
Protocol: as §2

nasal RPMI cells [2] = assay: Cytokines and chemokines quantification (Luminex), nasal RPMI cells; type: cell-based, human; settings: 125 μM, 24 hrs
Protocol: as §1
We next investigated whether, in addition to TSLP, P1 could stimulate epithelial secretion of additional immune factors prone to attract antigen presenting cells (APCs). […] Together with TSLP (Zhou, Xu et al. 2018), this set of immune factors could facilitate recruitment of APCs to the mucosal surface for initiation of an immune response, since CCL20 and CCL2 chemo-attract macrophages and immature dendritic cells (DCs), and MMP-9 degrades the extracellular matrix and facilitates the migration of immune cells in or out the epithelium. Treg cells have IgA-inducing functions and require RA, TGF-b1, IL-10, and TSLP from intestinal epithelial cells and DCs. So, we assumed IL-10 released from either EC or DC may contribute to IgA class switching (Gutzeit, Magri, et al. 2014).

autologous CD4+ T cells = assay: DC-T co-cultures, CD4+ T cell proliferation (CFSE); type: cell-based, human; settings: peptide-primed eduDCs, 125 μM, 5 days, DC/T 1:5
Protocol: Autologous CD4+ T cells were purified from PMBCs by negative selection according to manufacturer instructions (StemCell Technologies, France) (purity>95%)
DCs and confluent ECs were co-cultured overnight as described above, and DC-EC or eduDC was further incubated with P1 (clade B, 125 μM) or medium for 24 h. Then, DCs were separated and incubated with autologous CD4+ T cells pre-labeled with CFSE (Thermo Fisher) according to the manufacturer's instructions, at a ratio of 1:5 (DC/T). After 5 days of culture, CD4+ T cell proliferation was analyzed by flow cytometry as described (Yeh, Yeh et al. 2013, Qin, Yin et al. 2015) using Phytohaemagglutinin (PHA) (5 μg/mL) as positive control.

[3] = intranasal immunization, gp140 antigen; Van Roey, Arias et al. 2012; cited from earlier work
[4] = test system: CD8-depleted PBMCs cocultured with RPMI 2650 cells; assay: In vitro immunization assay with ovalbumin; type: cell-based, human; settings: OVA alone 10 μg/mL, no adjuvant
Protocol: In vitro immunization assay was performed as reported (Jung, Matsumoto et al. 2007) with modifications. Briefly, 1×10^6 CD8-depleted PBMCs (Human CD8 Depletion Cocktail, StemCell Technologies, France) were cocultured for 24 hrs with RPMI 2650 cells ([…]) pre-seeded in 48 well plates for 48 hrs. Then, ovalbumin (OVA, EndoFit Ovalbumin, 10 µg/mL, Invivogen) alone, OVA together with P1 (5 μM, 25 μM, 125 μM), OVA together with P1 mutant (P1mut, 125 μM), or medium were added to in RPMI 1640 medium supplemented with Non-Essential Amino Acids (NEAA solution, Thermo Fisher), IL-4 ([…]), IL-2 (10 UI/mL) and 2-mercaptoethanol (20 μM) for 7 days.
For the detection of OVA-specific B cells, at indicated time of culture, PMBCs were surface stained with ovalbumin conjugated to fluorescein (OVA-FITC, 20 ug/mL, Thermo), PE-conjugated mouse anti-human CD20 (BD Biosciences, CA, USA), APC-conjugated goat anti-human IgA or donkey anti-human IgG (Jackson ImmunoResearch, PA, USA) as indicated by the manufacturer. Specific labeling was quantified by flow cytometry with a Guava EasyCyte flow cytometer (Merck-Millipore), and analyzed with the dedicated InCyte software, using the following strategy: CD20+ B cells were first gated and cell double positive for OVA-FITC+ and APC-conjugated anti-IgA or anti-IgG were determined as OVA-IgA or IgG-specific B-cell s.
In vitro immunization assays have been used to produce specific monoclonal antibodies using a defined antigen complemented with an adjuvant (Borrebaeck, Danielsson et al. 1987). Here, we establish a mucosal immunization model adapted from (Jung, Matsumoto et al. 2007, Yeh, Yeh et al. 2013, Wijkhuisen, Savatier et al. 2016) and using mucosal DCs based on our results presented above. OVA was selected as the model antigen. Therefore, human CD8-depleted PBMCs (n=5 independent donors) were cocultured with RPMI 2650 cells for one day to educate DCs, and prior to addition of either medium, OVA, OVA plus P1 mutant (P1mut, 125 μM) or OVA plus P1 (5 μM, 25 μM, 125 μM) for seven more days. OVA-specific B cells were quantified by flow cytometry using FITC-conjugated OVA and anti-CD2O-PE to gate on OVA-specific B cells. The Ig isotype of surface B cell receptor (BCR) was next characterized by APC-conjugated anti-human-IgA or anti-human-IgG. […] Similar results were obtained when B cells were stained with anti-CD19-PE.

Molecule: CC(C)CC(=O)N1CCN(C(=O)CCCCCN)CC1 [ENMD-1068]
- reduction of P1-induced TSLP expression (primary HNECs; 1 h pre-treatment before P1, CsA 1.5 μM, ENMD-1068 500 μg/mL, n=3): 46±24%
- P1-induced up-regulation of miR-4485-3p (primary HNECs; inhibitor pre-treatment before P1): blocked the up-regulation of miR-4485-3p

Molecule: SQIQQKKNEQDLLALDKWANLWNWFDISNWLWYIR (Synthetic P1 clade A) [P1 Glade A]
- Reduction of TSLP secretion compared to clade B P1 (RPMI 2650 cells; 125 uM, p<0.05, n=5): 20%
- Secretion of TSLP (RPMI 2650 cells; peptide at 125 uM, 4 hours, n=5): 41.8 ± 2.6 pg/mL

Molecule: SQTQQEKNEQELLALDSWKNLWNWFSITNWLWYIK [P1 Glade C]
- Induction of TSLP secretion by P1 variants (RPMI 2650 cells; RPMI nasal cells, 4 hours): failed to induce TSLP secretion
- extracellular calcium influx (340/380 nm ratio) (nasal RPMI cells [1]): fails to raise the calcium level significantly
- extracellular calcium influx (340/380 nm ratio) (primary HNEC cells): fails to raise the calcium level significantly
- secretion of MMP-9, CCL20, CCL2 and IL-10 (nasal RPMI cells [2]): unable to stimulate significant MMP-9, CCL-20 CCL2 or IL-10 production
- proliferation of autologous CD4+ T cells (autologous CD4+ T cells): has no effect

Molecule: Thymic stromal lymphopoietin [TSLP]
- humoral response as mucosal adjuvant [3]: induced a strong humoral response both in serum and at genital level

B1: ovalbumin (protein, UniProt P01012 2-386, looked up)
Ovalbumin: GSIGAASMEFCFDVFKELKVHHANENIFYCPIAIMSALAMVYLGAKDSTRTQINKVVRFDKLPGFGDSIEAQCGTSVNVHSSLRDILNQITKPNDVYSFSLASRLYAEERYPILPEYLQCVKELYRGGLEPINFQTAADQARELINSWVESQTNGIIRNVLQPSSVDSQTAMVLVNAIVFKGLWEKAFKDEDTQAMPFRVTEQESKPVQMMYQIGLFRVASMASEKMKILELPFASGTMSMLVLLPDEVSGLEQLESIINFEKLTEWTSSNVMEERKIKVYLPRMKMEEKYNLTSVLMAMGITDVFSSSANLSGISSAESLKISQAVHAAHAEINEAGREVVGSAEAGVDAASVSEEFRADHPFLFCIKHIATNAVLFFGRCVSP
notes: model antigen, EndoFit Ovalbumin, Invivogen
- induction of OVA-specific B cells [4]: failed to induce OVA-specific specific B cells
